Results: patent US20070232575A1, “Treatment of Pulmonary Artery Hypertension with Dhea, Dheas, Dhea Analogs, or Dhea Derivatives” (priority 2004, published 2007)
Several values for one entry are separate records, joined by “and”; a condition that tells them apart may be missing. Equal entries are not always repeated. Entries after “also recorded” stand apart in the source; their conditions may differ.

Tests used:
[1] = tested on: chronic hypoxic-pulmonary artery hypertension (CH-PAH); assay: Mean pulmonary arterial pressure (PAP) in chronic hypoxic (CH-PAH) rat model; type: in vivo; conditions: for reversal of PA hypertension: in contrast to testosterone, estradiol, pregnenolone, protocol not restated; for effect on PAP, i.v. administration: 3 mg/kg, same intravascular protocol as for DHEA, CH-DHEA rats (so in the source)
Experimental: To study the mechanisms of PAH and its possible treatments, an animal model was utilized. The placement of rats in a hypobaric chamber for 7 to 21 days induced chronic hypoxia, resulting in CH-PAH, a useful model system for studying mammalian PAH.
The rat model experiments were performed as follows. Adult male Wistar rats (220-240 g) were randomized into five groups. […] Intravascular administration was performed via the catheter inserted in the right jugular vein.

PASMCs from CH rats = assay: In vitro DHEA treatment of PASMCs, resting [Ca2+]i, with K channel blockers and pathway inhibitors; type: cell-based, rat; conditions: for effect on the DHEA-induced [Ca2+]i decrease: DHEA plus blocker/inhibitor: IbTx, agitoxin-2, ODQ 10 μM, genistein 1 μM, 476485 1 μM, DTT
Experimental: The heart and lungs were removed and intrapulmonary arteries (IPAs) (150-300 μm of internal diameter) were then dissected. The adventitial and intimal layers were removed. For contraction experiments, rings (3 mm in length) were prepared.
As mentioned earlier, Ca^2+ is thought to play an important role in the response to chronic hypoxia. To measure the effects of DHEA on [Ca^2+]i of individual PASMCs, a [Ca^2+]i-sensitive fluorophore, indo-1 (Calbiochem, San Diego, Calif.), was employed. […] The recording system included a Nikon Diaphot inverted microscope fitted with epifluorescence.
To further examine how DHEA functions to decrease the [Ca^2+]i in PASMCs, the following experiment was performed.

In the case of `C[C@]12CC[C@H](O)C[C@@H]1CC[C@@H]1[C@@H]2CC[C@]2(C)C(=O)CC[C@@H]12` [3β-hydroxy-5α-androstan-17-one], the “reversal of PA hypertension” value [1] is reported as “did reverse PA hypertension”.

`C[C@H]1CC[C@@]2(C)C(=CC[C@@H]3[C@@H]2CC[C@]2(C)C(=O)CC[C@@H]32)C1` [3βmethyl-5-androsten-17-one] was tested, and the “reversal of PA hypertension” value [1] was “did reverse PA hypertension”.

With `Nc1ccncc1` [4-AP, 4-amino-pyridine] the “block of the DHEA-induced [Ca2+]i decrease” value (PASMCs from CH rats; combined IbTx 100 nM and 4-AP 1 mM) was 100% and the “effect on the DHEA effect on resting [Ca2+]i” value (PASMCs from CH rats; combined presence of 4-AP and IbTx) was “almost totally abolished”.

In the case of `C[C@]12CC[C@H]3[C@@H](CC=C4C[C@@H](O)CC[C@@]43C)[C@@H]1CC[C@@H]2O` [5-androsten-3β,17β-diol], the “reversal of PA hypertension” value [1] is reported as “did reverse PA hypertension”.

In the case of `O[C@@H](CS)[C@@H](O)CS` [DTT], the “effect on the DHEA-induced [Ca2+]i decrease” value (“effect … [Ca2+]i decrease” below) (PASMCs from CH rats) is reported as “totally inhibited; also recorded: suppressed; also recorded: inhibits the effect of DHEA” and the “elevation of the resting [Ca2+]i” value (PASMCs from CH rats; DTT with DHEA, PASMCs) is reported as 23 nM.

With `O=c1onc2cnc3ccccc3n12` [ODQ, 1H-[1,2,4]oxadiazolol[4,3,-a]quinoxalin-1-one] the “effect … [Ca2+]i decrease” value (PASMCs from CH rats) was “did not alter; also recorded: no effect”.

With `O=c1c(-c2ccc(O)cc2)coc2cc(O)cc(O)c12` [genistein, Genistein] the “effect … [Ca2+]i decrease” value (PASMCs from CH rats) was “did not alter; also recorded: no effect”.

For `CC(=O)[C@H]1CC[C@H]2[C@@H]3CC=C4C[C@@H](O)CC[C@]4(C)[C@H]3CC[C@]12C` [pregnenolone], the “effect on PAP, i.v. administration” value [1] was “did not reveal any effect”.

In the case of `C[C@]12CC[C@H]3[C@@H](CCC4=CC(=O)CC[C@@]43C)[C@@H]1CC[C@@H]2O` [testosterone], the “effect on PAP, i.v. administration” value [1] is reported as “did not reveal any effect”.

With agitoxin-2 the “effect … [Ca2+]i decrease” value (PASMCs from CH rats) was “no effect”.

“iberiotoxin (QFTDVDCSVSKECWSVCKDLFGVDRGKCMGKKCRCYQ; UniProt P24663 1-37, looked up) [IbTx]” was tested, and the “inhibition of the DHEA-induced change of resting [Ca2+]i” value (PASMCs from CH rats; DHEA 100 μM and IbTx 100 nM, 10 min, PASMCs from CH rats) was 62% and 65% and the “effect … [Ca2+]i decrease” value (PASMCs from CH rats) was “blocked”.
